Measured values from ChEMBL document CHEMBL5608250, “Quinolinonyl Derivatives as Dual Inhibitors of the HIV-1 Integrase Catalytic Site and Integrase-RNA interactions” (ACS Med Chem Lett, 2024).
pEC50, pIC50: −log10 of the molar value. Activity calls are given as the source filed them. The rule behind the calls is not given here.

What was measured:
[1] = target: T1, Human immunodeficiency virus type 1 integrase (Human immunodeficiency virus 1, UniProt Q7ZJM1); assay: Inhibition of HIV-1 integrase catalytic activity incubated for 1 hrs in absence of LEDGF/p75 by HTRF assay
T1 sequence (Q7ZJM1 whole entry): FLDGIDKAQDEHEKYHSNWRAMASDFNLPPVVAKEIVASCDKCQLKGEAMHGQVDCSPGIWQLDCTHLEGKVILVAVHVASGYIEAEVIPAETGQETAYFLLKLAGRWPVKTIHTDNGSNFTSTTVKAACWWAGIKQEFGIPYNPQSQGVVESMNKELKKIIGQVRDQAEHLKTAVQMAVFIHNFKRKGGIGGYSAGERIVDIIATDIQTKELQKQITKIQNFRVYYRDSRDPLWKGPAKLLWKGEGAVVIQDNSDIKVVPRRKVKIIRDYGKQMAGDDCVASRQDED

[2] = target: Human immunodeficiency virus type 1 integrase (Human immunodeficiency virus 1) (UniProt Q7ZJM1); assay: (§1) Inhibition of HIV1 integrase activity by measuring multimerization of His-tagged integrase/FLAG-tagged integrase incubated for 3 hrs by […] HTRF assay
Chain of Human immunodeficiency virus type 1 integrase (Human immunodeficiency virus 1) (Q7ZJM1 as listed by the source): as the sequence (Q7ZJM1 whole entry) above

[3] = Inhibition of His-tagged HIV-1 integrase/FLAG-tagged LEDGF (unknown origin) protein-protein interaction preincubated with integrase for 30 mins followed by LEDGF/p75 addition and measured after overnight incubation by HTRF assay
[4] = test system: Human immunodeficiency virus 1; assay: (§2) Inhibition of 6His-tagged recombinant HIV-1 integrase/biotinylated HIV-1 transactivation response element RNA interaction assessed as […] preincubated with integrase for 2 hrs followed by RNA addition and measured after 1 hrs by ALPHAscreen based AlphaLISA; details: time 3.0 hrs
[5] = target: T1, Human immunodeficiency virus type 1 integrase; assay: as §1
[6] = as §2; set-up: species or system Human immunodeficiency virus 1
[7] = test system: Human immunodeficiency virus 1; assay: (§3) Antiviral activity against VSV-G pseudotyped HIV-1 NL4.3 (isolated from HEK293T cells viral stock supernatant) infected in human MT4 cells assessed as inhibition of early stage viral replication preincubated for 3 to 4 hrs in presence of polybrene followed by fresh media replacement with compound and measured after 48 hrs by flow cytometric analysis; format: functional, organism-based; details: Human immunodeficiency virus 1, NL4.3, MT4
[8] = test system: Human immunodeficiency virus 1; assay: as §3, with “from compound pretreated” for “from”, “late” for “early”; format: functional, organism-based; details: time 51-52 hrs
[9] = test system: Human immunodeficiency virus 1; assay: as §3, with “analysis relative to control” for “analysis”; format: functional; details: time 51-52 hrs
[10] = test system: Human immunodeficiency virus 1; assay: Antiviral activity against VSV-G pseudotyped HIV-1 NL4.3 (isolated from compound pretreated HEK293T cells viral stock supernatant) infected in human MT4 cells assessed as inhibition of late stage viral replication at 25 microM preincubated for 3 to 4 hrs in presence of polybrene followed by fresh media replacement with compound and measured after 48 hrs by flow cytometric analysis relative to …; format: functional; details: Human immunodeficiency virus 1, NL4.3, MT4, time 51-52 hrs

Question: With `O=C(O)c1cn(Cc2ccc(F)cc2)c2ccc(Oc3ccccc3)cc2c1=O` as the compound, how does the pIC50 [1] read?
Answer: Its pIC50 is under 3.70.

Question: What about the inhibition [2] of the same compound?
Answer: Its inhibition is “Active”.

Question: What about the inhibition [3] of the same compound?
Answer: The inhibition was “inactive”.

Question: And the inhibition [4]?
Answer: The inhibition was “Active”.

Question: With `CCOC(=O)/C(O)=C/C(=O)c1cc2c(=O)c(C(=O)/C=C(\O)C(=O)OCC)cn(Cc3ccc(F)cc3)c2cc1N(C)C` as the compound, how does the pIC50 [1] read?
Answer: The pIC50 was 6.32.

Question: What about the pEC50 [5] of the same compound?
Answer: The pEC50 was under 3.70.

Question: And the inhibition [3]?
Answer: The inhibition was “inactive”.

Question: And the pIC50 [6]?
Answer: The pIC50 was 5.98.

Question: What about the pEC50 [7] of the same compound?
Answer: The pEC50 was under 5.20.

Question: What about the Activity [8] of the same compound?
Answer: The Activity was “inactive”.

Question: What about the “inhibition (INH)” value [9] of the same compound?
Answer: Its value is 50%.

Question: Which results are given for `CN(C)c1cc2c(cc1C(=O)/C=C(\O)C(=O)O)c(=O)c(C(=O)/C=C(\O)C(=O)O)cn2Cc1ccc(F)cc1`?
Answer: pIC50 [1]: 6.74; inhibition [2]: Active; inhibition [3]: inactive; pIC50 [6]: 6.12; pEC50 [7]: < 5.20; Activity [8]: inactive; inhibition (INH) [9]: 38%

Question: With `O=C(O)c1cn(Cc2ccc(F)cc2)c2ccc(OCc3ccc(OCc4ccccc4)cc3)cc2c1=O` as the compound, how does the pIC50 [1] read?
Answer: Its pIC50 is 5.20.

Question: And the pEC50 [5]?
Answer: The pEC50 was under 5.70.

Question: What about the inhibition [3] of the same compound?
Answer: The inhibition was “inactive”.

Question: What about the inhibition [4] of the same compound?
Answer: Its inhibition is “Active”.

Question: With `CCOC(=O)c1cn(Cc2ccc(F)cc2)c2ccc(OCc3ccc(OCc4ccccc4)cc3)cc2c1=O` as the compound, how does the pIC50 [1] read?
Answer: Its pIC50 is under 3.70.

Question: And the inhibition [2]?
Answer: The inhibition was “Active”.

Question: And the inhibition [3]?
Answer: The inhibition was “inactive”.

Question: What about the inhibition [4] of the same compound?
Answer: The inhibition was “Active”.

Question: Which results are given for `O=C(O)c1cn(Cc2ccc(F)cc2)c2ccc(OCc3ccc(F)cc3)cc2c1=O`?
Answer: pIC50 [1]: < 3.70; inhibition [2]: inactive; inhibition [3]: inactive; inhibition [4]: Active

Question: With `O=C(O)c1cn(Cc2ccc(F)cc2)c2ccc(OCc3cccc4ccccc34)cc2c1=O` as the compound, how does the pIC50 [1] read?
Answer: The pIC50 was 4.44.

Question: And the pEC50 [5]?
Answer: The pEC50 was under 3.70.

Question: And the inhibition [3]?
Answer: Its inhibition is “inactive”.

Question: What about the inhibition [4] of the same compound?
Answer: Its inhibition is “Active”.

Question: What does the source list for `CCOC(=O)/C(O)=C/C(=O)c1ccc2c(c1)c(=O)c(C(=O)/C=C(\O)C(=O)OCC)cn2Cc1ccc(F)cc1`?
Answer: pIC50 [1]: 6.10; inhibition [2]: Active; inhibition [3]: inactive; pIC50 [6]: 5.70

Question: Which results are given for `O=C(O)/C(O)=C/C(=O)c1ccc2c(c1)c(=O)c(C(=O)/C=C(\O)C(=O)O)cn2Cc1ccc(F)cc1`?
Answer: inhibition [2]: Active; inhibition [3]: Active; pIC50 [6]: 6.08; pEC50 [7]: 5.64; inhibition at 25 µM [10]: 40%

Question: With `CCOC(=O)/C(O)=C/C(=O)c1cn(Cc2ccc(F)cc2)c2ccc(C(=O)c3ccc(C(=O)OCC)cc3)cc2c1=O` as the compound, how does the pIC50 [1] read?
Answer: The pIC50 was 6.13.

Question: What about the inhibition [2] of the same compound?
Answer: The inhibition was “Active”.

Question: What about the inhibition [3] of the same compound?
Answer: Its inhibition is “inactive”.

Question: And the inhibition [4]?
Answer: Its inhibition is “Active”.

Question: With `CCOC(=O)/C(O)=C/C(=O)c1cc2c(=O)c(C(=O)/C=C(\O)C(=O)OCC)cn(Cc3ccc(F)cc3)c2cc1N1CCN(C)CC1` as the compound, how does the pIC50 [1] read?
Answer: The pIC50 was 6.11.

Question: What about the inhibition [2] of the same compound?
Answer: Its inhibition is “Active”.

Question: What about the inhibition [3] of the same compound?
Answer: The inhibition was “inactive”.

Question: And the pIC50 [6]?
Answer: The pIC50 was 5.38.

Question: With `CCOC(=O)c1cn(Cc2ccc(F)cc2)c2ccc(OCc3cccc4ccccc34)cc2c1=O` as the compound, how does the pIC50 [1] read?
Answer: The pIC50 was 4.38.

Question: And the pEC50 [5]?
Answer: Its pEC50 is under 3.70.

Question: What about the inhibition [3] of the same compound?
Answer: Its inhibition is “inactive”.

Question: And the inhibition [4]?
Answer: Its inhibition is “Active”.

Question: Which results are given for `O=C(O)/C(O)=C/C(=O)c1ccc2[nH]cc(C(=O)/C=C(\O)C(=O)O)c(=O)c2c1`?
Answer: pIC50 [1]: 5.50; inhibition [2]: Active; inhibition [3]: Active; pIC50 [6]: 5.88

Question: With `O=C(O)/C(O)=C/C(=O)c1cn(Cc2ccc(F)cc2)c2ccc(C(=O)c3ccc(C(=O)O)cc3)cc2c1=O` as the compound, how does the pIC50 [1] read?
Answer: Its pIC50 is 7.11.

Question: And the inhibition [2]?
Answer: The inhibition was “Active”.

Question: What about the inhibition [3] of the same compound?
Answer: Its inhibition is “inactive”.

Question: What about the pIC50 [6] of the same compound?
Answer: Its pIC50 is 5.80.

Question: What does the source list for `CCOC(=O)/C(O)=C/C(=O)c1ccc2[nH]cc(C(=O)/C=C(\O)C(=O)OCC)c(=O)c2c1`?
Answer: pIC50 [1]: 5.63; inhibition [2]: Active; inhibition [3]: Active; pIC50 [6]: 5.65
